Measured values taken from US11865111B2, “Antiviral drugs targeting the N-terminal domain (NTD) of the coronavirus spike receptor binding domain (RBD)” (priority 2021, dated 2024).
Like-named read-outs stand apart in the source and are kept apart here.

Key:
[1] = in vitro; conditions: African green monkey
[2] = test system: SARS-CoV-2 (USA-WA1/2020); assay: microbe, parasite or virus in culture; type: cell-based; conditions: for SI (selectivity index=CC50/EC50): CC50/EC50, against the SARS-CoV-2 strain
[3] = Severe acute respiratory syndrome coronavirus 2, Vero C1008, 32 h, read-out: EC50
[4] = Severe acute respiratory syndrome coronavirus 2, Vero C1008, 32 h, read-out: EC90
[5] = Severe acute respiratory syndrome coronavirus 2, Vero C1008, against the SARS-CoV-2 strain, read-out: EC90 value

| SMILES | CC50 [1] [µM] | SI (selectivity index=CC50/EC50) [2] | EC50 [2, 3] [µM] | EC90 [2, 4] [µM] | EC50 ([2]; Severe acute respiratory syndrome coronavirus 2, Vero C1008, against the SARS-CoV-2 strain, unit inferred, read-out: EC50 value) [µM] | EC90 [2, 5] [µM] | EC50 ([2]; Severe acute respiratory syndrome coronavirus 2, Vero C1008, against the SARS-CoV-2 strain, read-out: EC50 value) [µM] |
| --- | --- | --- | --- | --- | --- | --- | --- |
| CCOc1cc(CN2CCC(C(=O)Nc3cccc(-c4cccc(F)c4)c3)CC2)ccc1O [Compound 4, 1-(3-ethoxy-4-hydroxybenzyl)-N-(3′-fluoro-[1,1′-biphenyl]-3-yl)piperidine-4-carboxamide] | > 30 | >4.92 | 6.1 | 10.1 | – | – | – |
| CCOc1cc(CN2CCC(C(=O)Nc3cccc(-c4cccc(Cl)c4)c3)CC2)ccc1O [Compound 9, N-(3′-chloro-[1,1′-biphenyl]-3-yl)-1-(3-ethoxy-4-hydroxybenzyl)piperidine-4-carboxamide] | 16 | 2.80 | 5.8 | 8.9 | – | – | – |
| COC(=O)c1cccc(CNCc2cccc(-c3csc(-c4nc5ccccc5[nH]4)c3)c2)c1 [Compound 1, methyl 3-(((3-(5-(1H-benzo[d]imidazol-2-yl)thiophen-3-yl)benzyl)amino)methyl)benzoate] | > 30 | >5.30 | 5.66 | 9.5 | – | – | – |
| CCOc1cc(CN2CCC(C(=O)Nc3cccc(-c4ccc(Cl)cc4)c3)CC2)ccc1O [Compound 10, N-(4′-chloro-[1,1′-biphenyl]-3-yl)-1-(3-ethoxy-4-hydroxybenzyl)piperidine-4-carboxamide] | 16 | 2.65 | 6.2 | 9.1 | – | – | – |
| O=C(NC1CCN(CCCCC2(C(=O)NCC(F)(F)F)c3ccccc3-c3ccccc32)CC1)c1ccccc1-c1ccc(C(F)(F)F)cc1 [N-(2,2,2-trifluoroethyl)-9-(4-(4-(4′-(trifluoromethyl)-[1,1′-biphenyl]-2-carboxamido)piperidin-1-yl)butyl)-9H-fluorene-9-carboxamide, reference compound] | 9.56 | 5.92 | – | – | 1.61 | 2.83 | – |
| COC(=O)c1cccc(CNC(=O)c2cccc(-c3csc(-c4nc5ccccc5[nH]4)c3)c2)c1 [Compound 3, methyl 3-((3-(5-(1H-benzo[d]imidazol-2-yl)thiophen-3-yl)benzamido)methyl)benzoate] | > 30 | >4.00 | 7.5 | 12.6 | – | – | – |
| CCOc1cc(CN2CCC(C(=O)Nc3cccc(-c4cccc(C(F)(F)F)c4)c3)CC2)ccc1O [Compound 5, 1-(3-ethoxy-4-hydroxybenzyl)-N-(3′-(trifluoromethyl)-[1,1′-biphenyl]-3-yl)piperidine-4-carboxamide] | 15.6 | 3.20 | 4.91 | 7.47 | – | – | – |
| COc1cc(C(=O)OCCCN2CCCN(CCCOC(=O)c3cc(OC)c(OC)c(OC)c3)CC2)cc(OC)c1OC [Dilazep, 3-[4-[3-(3,4,5-trimethoxybenzoyl)oxypropyl]-1,4-diazepan-1-yl]propyl 3,4,5-trimethoxybenzoate, reference compound] | > 30 | – | – | – | – | 19.8 | 3.89 |
| CCOc1cc(CN2CCC(C(=O)Nc3cccc(-c4cccc(OC)c4)c3)CC2)ccc1O [Compound 6, 1-(3-ethoxy-4-hydroxybenzyl)-N-(3′-methoxy-[1,1′-biphenyl]-3-yl)piperidine-4-carboxamide] | 26.3 | 3.70 | 7.16 | 11.5 | – | – | – |
| O=C(Nc1cccc(-c2cccc(Cl)c2)c1)C1CCN(Cc2ccc(O)cc2)CC1 [Compound 7, N-(3′-chloro-[1,1′-biphenyl]-3-yl)-1-(4-hydroxybenzyl)piperidine-4-carboxamide] | 21 | 3.36 | 6.4 | 11 | – | – | – |
| CNC(=O)c1cccc(CNCc2cccc(-c3csc(-c4nc5ccccc5[nH]4)c3)c2)c1 [Compound 2, 3-(((3-(5-(1H-benzo[d]imidazol-2-yl)thiophen-3-yl)benzyl)amino)methyl)-N-methylbenzamide] | > 30 | >4.04 | 7.43 | 13.1 | – | – | – |
| COc1ccc(CN2CCC(C(=O)Nc3cccc(-c4cccc(Cl)c4)c3)CC2)cc1O [Compound 8, N-(3′-chloro-[1,1′-biphenyl]-3-yl)-1-(3-hydroxy-4-methoxybenzyl)piperidine-4-carboxamide] | 17 | 2.48 | 6.9 | 11.7 | – | – | – |
